Data: US10294202B2, “Pyrrolidinones as herbicides” (FMC Corporation, priority 2013, dated 2019)
Where two headings read alike, the source gives them in different places.

Key:
giant foxtail = assay: Test A pre-/postemergence herbicide test; type: in vivo, Setaria faberii; settings: for Foxtail, Giant plant response rating: Preemergence, visual rating on 0 to 100 scale (0 no effect, 100 complete control)
In short: (§1)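 Visual injury ratings, 0 = no effect, 100 = complete control, taken ~10 days after treatment against untreated greenhouse controls. Preemergence: directed soil spray onto seeded loam/sand pots. Postemergence: spray onto plants at one- to two-leaf stage, 2–10 cm tall.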

corn = assay: Test A pre-/postemergence herbicide test; type: in vivo, Zea mays; settings: for Corn plant response rating: Preemergence, visual rating on 0 to 100 scale (0 no effect, 100 complete control)
In short: as §1

wheat (winter wheat) = assay: Test C pre-/postemergence herbicide test; type: in vivo, Triticum aestivum
In short: (§2)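 Pre- and postemergence greenhouse screen. Preemergence treatment went onto freshly planted seeds in loam–sand soil; postemergence treatment went onto plants 2 to 18 cm tall at the 1- to 4-leaf stage in sphagnum peat/vermiculite medium. Scoring at 13 to 15 days used a 0–100 control scale.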

crabgrass, large = assay: Test C pre-/postemergence herbicide test; type: in vivo, Digitaria sanguinalis
In short: as §2

johnsongrass = assay: Test C pre-/postemergence herbicide test; type: in vivo, Sorghum halepense
In short: as §2

pigweed = assay: Test C pre-/postemergence herbicide test; type: in vivo, Amaranthus retroflexus
In short: as §2

ragweed = assay: Test C pre-/postemergence herbicide test; type: in vivo, Ambrosia elatior
In short: as §2

oat, wild = assay: Test C pre-/postemergence herbicide test; type: in vivo, Avena fatua
Source text: Seeds of plant species selected from blackgrass (Alopecurus myosuroides), ryegrass, Italian (Italian ryegrass, Lolium multiflorum), wheat (winter wheat, Triticum aestivum), galium (catchweed bedstraw, Galium aparine), corn (Zea mays), crabgrass, large (large crabgrass, Digitaria sanguinalis), foxtail, giant (giant foxtail, Setaria faberii), johnsongrass (Sorghum halepense), lambsquarters (Chenopodium album), morningglory (Ipomoea coccinea), nutsedge, yellow (yellow nutsedge, Cyperus esculentus), pigweed (Amaranthus retroflexus), ragweed (common ragweed, Ambrosia elatior), soybean (Glycine max), barnyardgrass (Echinochloa crus-galli), oilseed rape (Brassica napus), waterhemp (common waterhemp, Amaranthus rudis), kochia (Kochia scoparia), oat, wild (wild oat, Avena fatua), surinam grass (Brachiaria decumbens), foxtail, green (green foxtail, Setaria viridis), goosegrass (Eleusine indica), bromegrass, downy (downy bromegrass, Bromus tectorum), nightshade (eastern black nightshade, Solanum ptycanthum), cocklebur (common cocklebur, Xanthium strumarium), cupgrass, woolly (woolly cupgrass, Eriochloa villosa), bermudagrass (Cynodon dactylon), sunflower, (common oilseed sunflower, Helianthus annuus), Russian thistle (Salsola kali) and velvetleaf (Abutilon theophrasti) were planted into a blend of loam soil and sand and treated preemergence with test chemicals formulated in a non-phytotoxic solvent mixture which included a surfactant. At the same time, plants selected from these crop and weed species and also barley (winter barley, Hordeum vulgare), […]), chickweed (common chickweed, Stellaria media), deadnettle (henbit deadnettle, Lamium amplexicaule), and canarygrass (littleseed canarygrass, Phalaris minor) were planted in pots containing Redi-Earth® planting medium (Scotts Company, 14111 Scottslawn Road, Marysville, Ohio 43041) comprising spaghnum peat moss, vermiculite, wetting agent and starter nutrients and treated with postemergence applications of test chemicals formulated in the same manner. Plants ranged in height from 2 to 18 cm (1- to 4-leaf stage) for postemergence treatments. Treated plants and controls were maintained in a greenhouse for 13 to 15 days, after which time all species were compared to controls and visually evaluated. Plant response ratings, summarized in Table C, are based on a scale of 0 to 100 where 0 is no effect and 100 is complete control. A dash (-) response means no test result.

lambsquarters = assay: Test C pre-/postemergence herbicide test; type: in vivo, Chenopodium album
In short: as §2

[1] = Postemergence, 125 g ai/ha, 0 to 100 scale, 0 no effect, 100 complete control
[2] = Postemergence, 500 g ai/ha, 0 to 100 scale (0 no effect, 100 complete control)
[3] = preemergence, 500 g ai/ha, 0 to 100 scale
[4] = Preemergence, 62 g ai/ha, scale 0 to 100
[5] = Preemergence, 125 g ai/ha, scale 0 to 100 (0 no effect, 100 complete control)
[6] = Preemergence, 31 g ai/ha, scale 0 to 100 (0 no effect, 100 complete control)
[7] = Preemergence, 250 g ai/ha, scale 0 to 100 (0 no effect, 100 complete control)
[8] = Postemergence, 31 g ai/ha, scale 0 (no effect) to 100 (complete control)
[9] = Postemergence, 62 g ai/ha, scale 0 to 100 (0 no effect, 100 complete control)
[10] = Postemergence, 125 g ai/ha, scale 0 to 100 (0 no effect, 100 complete control)
[11] = Postemergence, 250 g ai/ha, scale 0 to 100 (0 no effect, 100 complete control)
[12] = Preemergence, 31 g ai/ha, scale 0 to 100, 0 is no effect and 100 is complete control

O=C1NCC(c2ccc(Cl)c(Cl)c2)C1C(=O)Nc1ccccc1F (racemic) [Compound 14]
98: Plant response rating, Crabgrass, Large (crabgrass, large; [4]) | Plant response rating, Crabgrass, Large (crabgrass, large; [5])
80: Plant response rating, Foxtail, Giant (giant foxtail; [2]) | Foxtail, Giant plant response rating (giant foxtail; 125 g ai/ha)
10: Plant response rating, Wheat (wheat (winter wheat); [4]) | Plant response rating, Wheat (wheat (winter wheat); [5])
0: Plant response rating, Corn (corn; [1]) | Plant response rating, Corn (corn; [2]) | Corn plant response rating (corn; 125 g ai/ha) | Plant response rating, Corn (corn; [3]) | Plant response rating, Johnsongrass (johnsongrass; [4]) | Plant response rating, Johnsongrass (johnsongrass; [5]) | Plant response rating, Pigweed (pigweed; [4]) | Plant response rating, Pigweed (pigweed; [5]) | Plant response rating, Ragweed (ragweed; [4]) | Plant response rating, Ragweed (ragweed; [5]) | Plant response rating, Oat, Wild (oat, wild; [4]) | Plant response rating, Oat, Wild (oat, wild; [5])
90: Plant response rating, Foxtail, Giant (giant foxtail; [3]) | Crabgrass, Large plant response rating (crabgrass, large; [6])
100: Plant response rating, Crabgrass, Large (crabgrass, large; [7])
60: Plant response rating, Foxtail, Giant (giant foxtail; [1])

O=C1NCC(c2ccc(F)c(F)c2)C1C(=O)Nc1cccc(F)c1F (racemic) [Compound 101]
20: Plant response rating, Wheat (wheat (winter wheat); [4])
45: Plant response rating, Pigweed (pigweed; [11]) | Plant response rating, Ragweed (ragweed; [11])
95: Crabgrass, Large plant response rating (crabgrass, large; [12])
100: Plant response rating (scale of 0 to 100), Crabgrass, Large (crabgrass, large; Preemergence, 250 g ai/ha)
10: Plant response rating, Lambsquarters (lambsquarters; [8]) | Plant response rating, Pigweed (pigweed; [9])
25: Plant response rating, Crabgrass, Large (crabgrass, large; [8]) | Plant response rating, Lambsquarters (lambsquarters; [9])
15: Plant response rating, Johnsongrass (johnsongrass; [4]) | Plant response rating, Pigweed (pigweed; [10]) | Ragweed plant response rating (ragweed; [12])
50: Plant response rating, Corn (corn; [2]) | Plant response rating, Wheat (wheat (winter wheat); [5]) | Plant response rating, Crabgrass, Large (crabgrass, large; [9])
98: Plant response rating, Crabgrass, Large (crabgrass, large; [4]) | Plant response rating, Crabgrass, Large (crabgrass, large; [5])
35: Plant response rating, Lambsquarters (lambsquarters; [10])
0: Plant response rating, Corn (corn; [1]) | Corn plant response rating (corn; 125 g ai/ha) | Plant response rating, Corn (corn; [3]) | Plant response rating, Wheat (wheat (winter wheat); [8]) | Plant response rating, Wheat (wheat (winter wheat); [9]) | Plant response rating, Wheat (wheat (winter wheat); [10]) | Plant response rating, Wheat (wheat (winter wheat); [11]) | Wheat plant response rating (wheat (winter wheat); [12]) | Plant response rating, Johnsongrass (johnsongrass; [8]) | Plant response rating, Johnsongrass (johnsongrass; [9]) | Plant response rating, Johnsongrass (johnsongrass; [10]) | Plant response rating, Johnsongrass (johnsongrass; [11]) | Johnsongrass plant response rating (johnsongrass; [12]) | Plant response rating, Pigweed (pigweed; [8]) | Pigweed plant response rating (pigweed; [12]) | Plant response rating, Pigweed (pigweed; [4]) | Plant response rating, Ragweed (ragweed; [8]) | Plant response rating, Ragweed (ragweed; [9]) | Plant response rating, Ragweed (ragweed; [4]) | Plant response rating, Oat, Wild (oat, wild; [8]) | Plant response rating, Oat, Wild (oat, wild; [9]) | Plant response rating, Oat, Wild (oat, wild; [10]) | Plant response rating, Oat, Wild (oat, wild; [11])
85: Plant response rating, Crabgrass, Large (crabgrass, large; [11]) | Plant response rating, Lambsquarters (lambsquarters; [4]) | Plant response rating (scale of 0 to 100), Pigweed (pigweed; Preemergence, 250 g ai/ha)
55: Plant response rating (scale of 0 to 100), Wheat (wheat (winter wheat); Preemergence, 250 g ai/ha) | Plant response rating, Johnsongrass (johnsongrass; [5]) | Plant response rating, Pigweed (pigweed; [5])
75: Plant response rating (scale of 0 to 100), Johnsongrass (johnsongrass; Preemergence, 250 g ai/ha)
90: Plant response rating, Foxtail, Giant (giant foxtail; [2]) | Foxtail, Giant plant response rating (giant foxtail; 125 g ai/ha) | Plant response rating, Foxtail, Giant (giant foxtail; [3]) | Plant response rating, Lambsquarters (lambsquarters; [5]) | Plant response rating (scale of 0 to 100), Lambsquarters (lambsquarters; Preemergence, 250 g ai/ha)
5: Plant response rating, Ragweed (ragweed; [10]) | Plant response rating, Ragweed (ragweed; [5]) | Plant response rating (scale of 0 to 100), Ragweed (ragweed; Preemergence, 250 g ai/ha)
80: Plant response rating, Foxtail, Giant (giant foxtail; [1]) | Plant response rating, Crabgrass, Large (crabgrass, large; [10])
70: Plant response rating, Lambsquarters (lambsquarters; [11])
30: Lambsquarters plant response rating (lambsquarters; [12])

O=C1NCCC1C(=O)N(c1ccc(F)c(F)c1)c1ccccc1F (stereo not shown) [Compound 5, N-(3,4-difluorophenyl)-N-(2-fluorophenyl)-2-oxo-3-pyrrolidinecarboxamide]
90: Foxtail, Giant plant response rating (giant foxtail; 125 g ai/ha)
100%: pest or weed control at 500 g/ha (giant foxtail; Setaria faberi, pre-emergence, 240 h, preemergence, 500 g ai/ha, 0 to 100 scale, read-out: Plant response rating, Foxtail, Giant)
100: Plant response rating, Crabgrass, Large (crabgrass, large; [4]) | Plant response rating, Crabgrass, Large (crabgrass, large; [5]) | Crabgrass, Large plant response rating (crabgrass, large; [6]) | Plant response rating, Crabgrass, Large (crabgrass, large; [7])
80%: pest or weed control at 125 g/ha (giant foxtail; Setaria faberi, post-emergence, 240 h, Postemergence, 125 g ai/ha, 0 to 100 scale, 0 no effect, 100 complete control, read-out: Plant response rating, Foxtail, Giant) | pest or weed control at 500 g/ha (giant foxtail; Setaria faberi, post-emergence, 240 h, Postemergence, 500 g ai/ha, 0 to 100 scale (0 no effect, 100 complete control), read-out: Plant response rating, Foxtail, Giant)
0: Corn plant response rating (corn; 125 g ai/ha) | Plant response rating, Wheat (wheat (winter wheat); [4]) | Plant response rating, Johnsongrass (johnsongrass; [4]) | Plant response rating, Johnsongrass (johnsongrass; [5]) | Plant response rating, Pigweed (pigweed; [4]) | Plant response rating, Pigweed (pigweed; [5]) | Plant response rating, Ragweed (ragweed; [4]) | Plant response rating, Ragweed (ragweed; [5]) | Plant response rating, Oat, Wild (oat, wild; [4]) | Plant response rating, Oat, Wild (oat, wild; [5])
0%: Corn plant response rating (crop injury, 0 = no effect, 100 = complete kill) at 125 g/ha (corn; Zea mays, post-emergence, 240 h, Postemergence, 125 g ai/ha, 0 to 100 scale, 0 no effect, 100 complete control) | Corn plant response rating (crop injury, 0 = no effect, 100 = complete kill) at 500 g/ha (corn; Zea mays, post-emergence, 240 h, Postemergence, 500 g ai/ha, 0 to 100 scale (0 no effect, 100 complete control)) | Corn plant response rating (crop injury, 0 = no effect, 100 = complete kill) at 500 g/ha (corn; Zea mays, pre-emergence, 240 h, preemergence, 500 g ai/ha, 0 to 100 scale)
95: Plant response rating, Lambsquarters (lambsquarters; [4]) | Plant response rating, Lambsquarters (lambsquarters; [5])
5: Plant response rating, Wheat (wheat (winter wheat); [5])
